Source: patent US5721265A, “Fluorinated 2-nitroimidazole analogs for detecting hypoxic tumor cells” (priority 1995, dated 1998)
In brackets after ≈: the same amount, converted by molar mass.

What was measured:
[1] = tested on: mouse tumors (EMT-6, KHT, RIF-1); details: cited from earlier work; for 19F signal intensity by tumor type: EMT-6, KHT vs RIF-1; for retention in mouse tumors (19F MRS): in vivo
[2] = cited from earlier work
[3] = in vivo; cited from earlier work
tumors = details: cited from earlier work
[4] = literature compounds; cited from earlier work
[5] = solubility in 0.9% saline solution
log P (lipophilicity) = assay type: physicochemical

Row | Compound | 19F signal intensity by tumor type [1] | retention in mouse tumors (19F MRS) [1] | octanol/water partition coefficient [2] | neurotoxic side effects [3] | log P [4] | solubility [5] [mM] | other results
1 | O=[N+]([O-])c1nccn1CC(O)COC(C(F)(F)F)C(F)(F)F (stereo not shown) [CCI-103F, hexafluoromisonidazole] | higher in EMT-6 and KHT than RIF-1 tumors | selectively retained in mouse tumors | 20 | neurotoxic side effects |  |  | staining for bound drug in tumors (tumors; immunohistochemistry): some staining for bound drug at the periphery of necrotic zones; 19F tumor signal detectable after twenty-four hours (tumors; intraperitoneal, 24 hours): 4 of 10
2 | O=C(Cn1ccnc1[N+](=O)[O-])NCCO [Etanidazole] |  |  |  |  | -1.28 | 551 (≈ 118 mg/mL) | neurotoxicity relative to Misonidazole [3]: less neurotoxic than Misonidazole
3 | COCC(O)Cn1ccnc1[N+](=O)[O-] (stereo not shown) [Misonidazole] |  |  |  |  | -0.32 |  | 
4 | O=[N+]([O-])c1nccn1CC(O)CF (stereo not shown) [Ro 07-0741] | higher in EMT-6 and KHT than RIF-1 tumors | selectively retained in mouse tumors | 0.41 | neurotoxic side effects |  |  | 
5 | O=C(Cn1ccnc1[N+](=O)[O-])N(CCO)CC(O)C(F)(F)F (stereo not shown) [SR 4557, N-(2-hydroxyethyl)-N-(2-hydroxy-3,3,3-trifluoropropyl)-2-(2-nitro 1H-imidazol-1-yl)acetamide] |  |  |  |  |  | 628 (≈ 205 mg/mL) | logP (log P (lipophilicity)): -0.36
